Where a name gives a salt, the structure may show the parent alone.
What was measured:
Wee-1 kinase = biological target: T1, Wee-1 kinase (Homo sapiens, UniProt P30291); test: Measurement of Wee-1 kinase activity (ADP-Glo luminescent kit); type: biochemical
T1 construct: purchased Invitrogen PV3817
In short: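 ADP-Glo luminescence reads ADP made over 1 h at RT, after an aliquot of 30 μM ATP and 2.0 μg/mL poly(Lys,Tyr 4:1) substrate. Before that, the kinase sat 30 min with inhibitor in Tris-HCl/MgCl2 buffer with BSA and DTT. IC50 came from regression of percent inhibition.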

[1] = CLint estimates using human liver microsomes (Method 4); type: in vitro ADME; settings: pH 7.4, 1 μM compound, read-out: Mics - CLint (HLM CLint)
In short: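 Depletion measured by LC/MS/MS in MRM mode over 2–50 min after starting reactions with 1 mM NADPH. Incubations used 0.5 mg/mL human liver microsomal protein, 1 μM compound, 0.1% DMSO, pH 7.4 phosphate buffer, 37 °C. ln peak area plotted against time; the gradient gave t½ and intrinsic clearance.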

[2] = tested on: phospho-cdc2 (Tyr15) in HT-29 cells; test: Effect on phosphorylation of cdc2 at Tyr15, PathScan ELISA (Method 2); type: cell-based; settings: Homo sapiens, 8 h, eight hours incubation, read-out: HT29 pCDC2 method 2
Description: Method 2: Determining the Effect of Compounds on the phosphorylation of cdc2 at Tyr15
The colorectal cancer cell lines HT-29 and HCT-116 were purchased from the ATCC and routinely maintained in McCoy's Medium (Invitrogen) supplemented with 10% Foetal Calf Serum.
The cells were trypsinised from their growing vessel and counted, 100 μL of cell suspension containing 6000 cells was pipetted into black 96 well Co-star plates and incubated overnight to allow adherence to the surface at a temperature of 37° C. and an atmosphere of 5% CO2. Test compounds were formulated in DMSO and diluted in foetal calf serum supplemented medium. Incubating medium was removed by aspiration and diluted drug supplemented medium added to each well.
The plate was returned to the incubator for an additional eight hours at 37° C. and an atmosphere of 5% CO2. Post incubation, the drug supplemented medium was aspirated from each well and the cells were washed once in ice-cold phosphate buffered saline (PBS). 100 μL of cell lysis buffer (Cell Signalling Technologies #9803) containing 20 mM Tris, 150 mM NaCl, 1 mM EDTA, 1 mM EGTA, 1% Triton-X100, 2.5 mM sodium pyrophosphate, 1 mM glycerophosphate, 1 mM Na3VO4 and 1 μg/mL leupeptin was added to each well of the 96 well plate and incubated at 4° C. for 30 min. The samples on the plate were snap frozen at −80° C. until required. Immediately before the continuation of the assay, the sample plate was thawed and centrifuged at 4° C. for 10 min and the supernatant transferred to secondary tubes or 96 well plate.
Cell supernatant was mixed in a ratio of 1:1 with sample dilutent buffer and vortexed for one minute. 100 μL of diluted sample was pipetted into pre-coated plates containing a rabbit polyclonal antibody for phospho-cdc2 (Tyr15) (Cell Signalling Technologies PathScan kit #7176). The plate was sealed and incubated overnight at 4° C.
The plate seal was removed and the well contents aspirated, followed by 3×5 min washes with 200 μL of diluted wash buffer. Between each wash the plate was tapped firmly onto blotting paper to ensure the removal of all kit solution. 100 μL of kit detection antibody was added to each well and the plate re-sealed and incubated at 37° C. for 1 h. Post incubation the plate was washed and processed in a similar manner to that previously described.
100 μL of horseradish peroxidise-linked secondary antibody was added to each test well, the plate sealed and incubated for thirty minutes at 37° C. Post incubation, the plate was washed as previously stated, followed by the addition of 100 μL of 3,3′,5,5′ tetramethylbenzidine (TMB reagent). The plate was sealed and incubated at RT for 30 min.
100 μL of stop solution was added to each well and the underside of the plate wiped with a lint-free tissue, prior to spectrophotometric determination. Absorbance from each well was read at 450 nm within 30 min of the addition of the stop solution.
The percentage of phospho-cdc2 was calculated compared to DMSO control and plotted versus the concentration of inhibitor using GraphPad Prism. Data was fitted using non-linear regression analysis and IC50 values generated.

[3] = Kinetic solubility in PBS buffer (Method 5); type: physicochemical; settings: aqueous buffer, kinetic from dmso stock; PBS buffer pH 7.4
Description: [formula] [formula] [formula] where V=Incubation volume (μL)/number of cells Method 5: Determination of Kinetic Solubility (in PBS Buffer)
Test compounds (5 μL; 10 mM DMSO stock) were added to 245 μL 10 of PBS buffer pH 7.4 (Dulbecco A) in a Millipore MultiScreen® Solubility Filter plate and mixed at 300 rpm at room temperature on a plate shaker for 90 minutes. Meanwhile 5-points calibration curves for each compound were established in a mixture of acetonitrile/PBS buffer 15 (top concentration 200 μM). After filtration and matrix match, the calibration and assay plates were analysed on a Bioteck Synergy 4 plate reader (240-400 nm). Final concentration of the test compound in the filtrate was calculated using the slope of the calibration curve. All 20 measurements were carried out in triplicate.

[4] = biological target: T2, human ether a go-go related gene (hERG) K′ channel (Homo sapiens, UniProt Q12809); test: hERG activity, IonWorks patch clamp electrophysiology (Method 6); type: cell-based
T2 construct: Essen BioScience
Description: Method 6: Determination of hERG Activity
Compounds were tested for inhibition of the human ether a go-go related gene (hERG) K′ channel using IonWorks patch clamp electrophysiology at Essen BioScience. 8-Point concentration-response curves of the effect of compound on hERG current as a percentage of pre-compound signal were generated using 3-fold serial dilutions from 11 μM and results are reported as IC50 in μM.

T1 sequence (P30291 whole entry): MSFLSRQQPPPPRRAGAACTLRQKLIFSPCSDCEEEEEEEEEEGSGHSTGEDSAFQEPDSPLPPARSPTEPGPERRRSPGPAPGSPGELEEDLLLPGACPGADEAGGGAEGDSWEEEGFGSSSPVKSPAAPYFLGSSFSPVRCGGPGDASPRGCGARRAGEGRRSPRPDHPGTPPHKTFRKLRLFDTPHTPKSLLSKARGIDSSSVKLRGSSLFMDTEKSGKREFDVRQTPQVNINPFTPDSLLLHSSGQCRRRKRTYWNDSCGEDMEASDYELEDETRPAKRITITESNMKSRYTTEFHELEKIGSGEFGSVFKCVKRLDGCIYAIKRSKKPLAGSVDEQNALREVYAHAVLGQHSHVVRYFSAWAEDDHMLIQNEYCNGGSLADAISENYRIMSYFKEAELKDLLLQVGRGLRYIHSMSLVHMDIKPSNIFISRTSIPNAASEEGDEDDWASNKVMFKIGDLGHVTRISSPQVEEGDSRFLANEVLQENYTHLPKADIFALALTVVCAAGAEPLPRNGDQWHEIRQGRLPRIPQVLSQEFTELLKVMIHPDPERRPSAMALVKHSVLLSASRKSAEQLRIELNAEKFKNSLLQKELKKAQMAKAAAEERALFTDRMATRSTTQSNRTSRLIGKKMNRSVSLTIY
T2 sequence (Q12809 whole entry): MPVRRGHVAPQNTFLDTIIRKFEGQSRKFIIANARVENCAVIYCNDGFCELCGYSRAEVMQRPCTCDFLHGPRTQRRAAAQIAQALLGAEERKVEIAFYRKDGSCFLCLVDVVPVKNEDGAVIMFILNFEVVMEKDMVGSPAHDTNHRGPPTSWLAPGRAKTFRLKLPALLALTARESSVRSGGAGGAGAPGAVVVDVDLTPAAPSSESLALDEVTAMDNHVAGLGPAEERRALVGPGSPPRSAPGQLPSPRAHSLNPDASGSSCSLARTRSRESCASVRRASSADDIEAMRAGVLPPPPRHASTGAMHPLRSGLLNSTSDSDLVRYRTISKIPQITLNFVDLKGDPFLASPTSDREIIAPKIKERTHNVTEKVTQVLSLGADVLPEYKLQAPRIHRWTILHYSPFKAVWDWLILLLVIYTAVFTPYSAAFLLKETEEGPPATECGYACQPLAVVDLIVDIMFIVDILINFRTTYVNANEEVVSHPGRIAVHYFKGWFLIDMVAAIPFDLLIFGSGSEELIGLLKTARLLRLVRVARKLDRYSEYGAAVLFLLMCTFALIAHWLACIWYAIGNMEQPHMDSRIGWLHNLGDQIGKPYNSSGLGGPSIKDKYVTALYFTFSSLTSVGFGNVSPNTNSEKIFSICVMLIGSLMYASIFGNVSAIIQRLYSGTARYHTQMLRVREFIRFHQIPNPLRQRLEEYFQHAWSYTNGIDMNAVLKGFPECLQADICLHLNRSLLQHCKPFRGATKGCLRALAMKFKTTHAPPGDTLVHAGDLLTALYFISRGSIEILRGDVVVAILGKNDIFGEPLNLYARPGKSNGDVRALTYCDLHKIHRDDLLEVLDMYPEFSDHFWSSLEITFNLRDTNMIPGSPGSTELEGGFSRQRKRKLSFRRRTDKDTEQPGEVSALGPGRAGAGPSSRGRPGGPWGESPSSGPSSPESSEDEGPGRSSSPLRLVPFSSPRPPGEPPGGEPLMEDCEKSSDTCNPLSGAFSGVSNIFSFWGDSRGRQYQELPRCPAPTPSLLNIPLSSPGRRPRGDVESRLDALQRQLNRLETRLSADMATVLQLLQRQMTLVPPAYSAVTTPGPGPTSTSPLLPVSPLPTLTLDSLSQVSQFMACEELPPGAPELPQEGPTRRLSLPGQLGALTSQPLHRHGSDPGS

Row | Compound | IC50 (Wee-1 kinase) | microsomal CLint at 1 μM [1] | IC50 [2] | solubility kinetic at 90 min [3] | IC50 [4]
1 | O=C1c2cnc(Nc3ccc(N4CCNCC4)cc3)nc2N2CCCC2N1c1c(Cl)cccc1Cl (stereo not shown) [Example 28, 6-(2,6-Dichlorophenyl)-2-((4-(piperazin-1-yl)phenyl)amino)-6a,7,8,9-tetrahydropyrimido[5,4-e]pyrrolo[1,2-a]pyrimidin-5(6H)-one] | 10 to 100 nM | ≤ 15 µL/min/mg | 100 to 1000 nM | – | –
2 | CN1CN(c2c(Cl)cccc2Cl)C(=O)c2cnc(Nc3ccc(N4CCNCC4)cc3)nc21 [drawing 383] | – | – | – | > 150 µM | –
3 | CN1CN(c2c(Cl)cccc2Cl)C(=O)c2cnc(Nc3ccc(CN4CCNCC4)cc3)nc21 [Example 12, 3-(2,6-Dichlorophenyl)-1-methyl-7-((4-(piperazin-1-ylmethyl)phenyl)amino)-2,3-dihydropyrimido[4,5-d]pyrimidin-4(1H)-one] | 10 to 100 nM | ≤ 15 µL/min/mg | 100 to 1000 nM | – | > 10000 nM
4 | CC1N(C)c2nc(Nc3ccc(N4CCNCC4)cc3)ncc2C(=O)N1c1c(Cl)cccc1Cl (stereo not shown) [Example 26, 3-(2,6-Dichlorophenyl)-1,2-dimethyl-7-((4-(piperazin-1-yl)phenyl)amino)-2,3-dihydropyrimido[4,5-d]pyrimidin-4(1H)-one] | 10 to 100 nM | ≤ 15 µL/min/mg | ≥ 1000 nM | – | –
5 | CN1CCN(Cc2ccc(Nc3ncc4c(n3)N(C)CN(c3c(Cl)cccc3Cl)C4=O)cc2)CC1 [Example 29, 3-(2,6-Dichlorophenyl)-1-methyl-7-((4-((4-methylpiperazin-1-yl)methyl)phenyl)amino)-2,3-dihydropyrimido[4,5-d]pyrimidin-4(1H)-one] | 10 to 100 nM | ≥ 50 µL/min/mg | 100 to 1000 nM | – | –
6 | CN1c2nc(Nc3ccc4c(c3)CNCC4)ncc2C(=O)N(c2c(Cl)cccc2Cl)C1c1ccccc1 (racemic) [Example 23, (rac)-3-(2,6-Dichlorophenyl)-1-methyl-2-phenyl-7-((1,2,3,4-tetrahydroisoquinolin-7-yl)amino)-2,3-dihydropyrimido[4,5-d]pyrimidin-4(1H)-one] | ≥ 100 nM | 15 to 50 µL/min/mg | ≥ 1000 nM | – | –
7 | O=C1c2cnc(Nc3ccc(N4CCNCC4)cc3)nc2NCN1c1c(Cl)cccc1Cl [Example 9, 3-(2,6-Dichlorophenyl)-7-((4-(piperazin-1-yl)phenyl)amino)-2,3-dihydropyrimido[4,5-d]pyrimidin-4(1H)-one] | 10 to 100 nM | ≤ 15 µL/min/mg | 100 to 1000 nM | – | –
8 | Cc1cn(-c2c(Cl)cccc2Cl)c(=O)c2cnc(Nc3ccc(N4CCNCC4)cc3)nc12 [reference compound] | – | – | – | < 50 µM | –
9 | CN1CN(c2c(Cl)cccc2Cl)C(=O)c2cnc(Nc3ccc(N4CCN(CC(=O)O)CC4)cc3)nc21 [Example 4, 2-(4-(4-((6-(2,6-Dichlorophenyl)-8-methyl-5-oxo-5,6,7,8-tetrahydropyrimido[4,5-d]pyrimidin-2-yl)amino)phenyl)piperazin-1-yl)acetic acid hydrochloride] | 10 to 100 nM | ≤ 15 µL/min/mg | ≥ 1000 nM | – | –
10 | Cc1cc(Nc2ncc3c(n2)N(C)CN(c2c(Cl)cccc2Cl)C3=O)ccc1N1CCNCC1 [drawing 385] | – | – | – | > 150 µM | –
11 | Cc1cc(Nc2ncc3c(=O)n(-c4c(Cl)cccc4Cl)cc(C)c3n2)ccc1N1CCNCC1 [reference compound] | – | – | – | < 50 µM | –
12 | CN1CN(c2c(Cl)cccc2Cl)C(=O)c2cnc(Nc3ccc(N4CCNCC4)c(CO)c3)nc21 [Example 10, 3-(2,6-Dichlorophenyl)-7-((3-(hydroxymethyl)-4-(piperazin-1-yl)phenyl)amino)-1-methyl-2,3-dihydropyrimido[4,5-d]pyrimidin-4(1H)-one] | ≤ 10 nM | ≤ 15 µL/min/mg | 100 to 1000 nM | – | > 10000 nM
13 | CN1CN(c2c(Cl)cccc2Cl)C(=O)c2cnc(Nc3ccc(N4CCN[C@H](CO)C4)cc3)nc21 [Example 20, (S)-3-(2,6-Dichlorophenyl)-7-((4-(3-(hydroxymethyl)piperazin-1-yl)phenyl)amino)-1-methyl-2,3-dihydropyrimido[4,5-d]pyrimidin-4(1H)-one] | ≤ 10 nM | 15 to 50 µL/min/mg | 100 to 1000 nM | – | > 10000 nM
14 | CN1CN(c2c(Cl)cccc2Cl)C(=O)c2cnc(Nc3ccc(N4CCNCC4)c(F)c3)nc21 [Example 7, 3-(2,6-Dichlorophenyl)-7-((3-fluoro-4-(piperazin-1-yl)phenyl)amino)-1-methyl-2,3-dihydropyrimido[4,5-d]pyrimidin-4(1H)-one] | 10 to 100 nM | ≤ 15 µL/min/mg | 100 to 1000 nM | – | –
15 | CN1CN(c2c(Cl)cccc2Cl)C(=O)c2cnc(Nc3ccc(CN4CCOCC4)cc3)nc21 [Example 27, 3-(2,6-Dichlorophenyl)-1-methyl-7-((4-(morpholinomethyl)phenyl)amino)-2,3-dihydropyrimido[4,5-d]pyrimidin-4(1H)-one] | 10 to 100 nM | ≥ 50 µL/min/mg | 100 to 1000 nM | – | –

Reference: US9850247B2 (Almac Discovery Limited, priority 2013, dated 2017)
